The target in the test is T1, T. thermophilus SAM complex (TtSAM; Sam50:Sam35:Sam37) (Thermothelomyces thermophilus, UniProt G2QFF9).
T1 construct: gene MYCTH_2094326; codon-optimized, co-expressed in S. cerevisiae W303.1B; Strep-Tactin purified monomeric 1:1:1 complex in LMNG/GDN or GDN; 10xHis or TwinStrep tags with linkers and TEV sites in some constructs; with Sorting and assembly machinery subunit Sam35; Sorting and assembly machinery subunit Sam37
Description: cryo-EM structure; LC/MS of purified complex. The note with it: co-purified from yeast membranes; modelled on back side of Sam50 barrel and beneath Sam37 cytosolic domain. It is filed as binding.

T1 sequence (G2QFF9 entry or part of it): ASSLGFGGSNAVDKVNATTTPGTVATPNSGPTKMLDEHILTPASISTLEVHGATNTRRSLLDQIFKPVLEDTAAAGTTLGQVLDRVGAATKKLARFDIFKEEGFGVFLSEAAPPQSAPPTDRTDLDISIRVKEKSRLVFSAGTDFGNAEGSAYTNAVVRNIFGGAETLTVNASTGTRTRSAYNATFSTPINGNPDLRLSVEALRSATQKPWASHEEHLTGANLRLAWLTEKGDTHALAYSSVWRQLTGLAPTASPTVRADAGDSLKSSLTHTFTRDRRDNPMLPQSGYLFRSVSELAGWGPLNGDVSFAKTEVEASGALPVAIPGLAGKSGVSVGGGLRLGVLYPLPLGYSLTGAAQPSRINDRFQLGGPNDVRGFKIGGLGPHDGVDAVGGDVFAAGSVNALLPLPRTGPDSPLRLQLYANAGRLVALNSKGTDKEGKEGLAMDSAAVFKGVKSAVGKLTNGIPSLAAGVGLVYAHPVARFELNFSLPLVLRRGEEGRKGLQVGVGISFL
T1 sequence (G2Q6R7 entry or part of it, further chain): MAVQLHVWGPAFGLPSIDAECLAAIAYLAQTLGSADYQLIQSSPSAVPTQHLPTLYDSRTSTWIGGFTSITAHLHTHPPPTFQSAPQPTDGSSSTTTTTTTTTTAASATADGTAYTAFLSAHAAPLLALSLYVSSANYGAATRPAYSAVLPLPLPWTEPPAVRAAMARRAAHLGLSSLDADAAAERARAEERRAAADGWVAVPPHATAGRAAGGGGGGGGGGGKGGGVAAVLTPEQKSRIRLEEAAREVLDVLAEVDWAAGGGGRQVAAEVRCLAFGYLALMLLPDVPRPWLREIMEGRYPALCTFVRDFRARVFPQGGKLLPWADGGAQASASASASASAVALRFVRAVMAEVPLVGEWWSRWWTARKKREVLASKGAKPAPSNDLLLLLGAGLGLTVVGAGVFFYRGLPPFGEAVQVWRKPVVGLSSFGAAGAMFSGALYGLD
T1 sequence (G2QAT9 entry or part of it, further chain): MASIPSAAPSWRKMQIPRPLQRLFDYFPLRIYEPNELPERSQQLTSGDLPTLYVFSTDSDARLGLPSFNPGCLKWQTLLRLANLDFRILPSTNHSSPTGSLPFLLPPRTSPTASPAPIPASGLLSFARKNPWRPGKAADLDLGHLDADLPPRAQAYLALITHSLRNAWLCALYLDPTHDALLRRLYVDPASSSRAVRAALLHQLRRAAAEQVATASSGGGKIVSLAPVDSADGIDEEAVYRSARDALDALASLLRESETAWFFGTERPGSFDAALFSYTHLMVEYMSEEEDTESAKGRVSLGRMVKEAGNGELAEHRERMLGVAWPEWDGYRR

For the compound `CC(C)[C@@H](C)/C=C/[C@@H](C)[C@H]1CC[C@H]2C3=CC=C4C[C@@H](O)CC[C@]4(C)[C@H]3CC[C@]12C` [ergosterol], the “cryo-EM structure; LC/MS of purified complex” value was “We have modeled these lipids as ergosterol molecules”.

(Values after PMC12728192, “The dynamic lateral gate of the mitochondrial β-barrel biogenesis machinery is blocked by darobactin A” (Nature Communications, 2025).)
